5 molecules from US20050171094A1, “Pyrrolopyrimidine derivatives” (priority 2002, published 2005) can be followed below.

The target in this test is recombinant human GSK-3β (Homo sapiens, UniProt P49841). Description: Determination of inhibition of GSK-3 enzyme activity. It is filed as biochemical. The note with it: read-out: GSK-3 enzyme-inhibiting activity (IC50 value). As for the experimental part:
Determination of Inhibition of GSK-3 Enzyme Activity
To five μl of a test compound in 5% DMSO as a solvent, 25 μl of phospho-glycogen synthase peptide-2 substrate solution [6 μm phospho-glycogen synthase peptide-2, 20 μm ATP, 16 mM MOPS buffer, pH 7.0, 0.2 mM EDTA, 20 mM magnesium acetate, 0.1 μl [γ-^33P]ATP (specific activity: about 110 TBq/mmol)] was added, and 20 μl of a GSK-3β enzyme solution [10 mU recombinant human GSK-3β, 20 mM MOPS buffer, pH 7.0, 1 mM EDTA, 0.1% polyoxyethylenelauryl ether (23 Lauryl Ether; Brij 35), 5% glycerol, 0.1% β-mercaptoethanol] was further added to initiate the reaction. After reacting at room temperature for 20 minutes, an equal amount of 200 mM phosphate solution was added to stop the reaction. 90 μl of the reaction product was allowed to adsorb to the MultiScreen PH plate (Millipore), and washed with 100 mM phosphate solution. After drying said plate, 30 μl of MicroScint-O (Packard Bioscience) was added, and cpm was measured by a scintilation counter to examine the inhibition activity. As used herein, Phospho GS Peptide 2 means […]P)-Glu-Asp-Glu-Glu-Glu (SEQ ID NO: 1).

Like-named read-outs stand apart in the source and are kept apart here.

Sequence of recombinant human GSK-3β (P49841 whole entry): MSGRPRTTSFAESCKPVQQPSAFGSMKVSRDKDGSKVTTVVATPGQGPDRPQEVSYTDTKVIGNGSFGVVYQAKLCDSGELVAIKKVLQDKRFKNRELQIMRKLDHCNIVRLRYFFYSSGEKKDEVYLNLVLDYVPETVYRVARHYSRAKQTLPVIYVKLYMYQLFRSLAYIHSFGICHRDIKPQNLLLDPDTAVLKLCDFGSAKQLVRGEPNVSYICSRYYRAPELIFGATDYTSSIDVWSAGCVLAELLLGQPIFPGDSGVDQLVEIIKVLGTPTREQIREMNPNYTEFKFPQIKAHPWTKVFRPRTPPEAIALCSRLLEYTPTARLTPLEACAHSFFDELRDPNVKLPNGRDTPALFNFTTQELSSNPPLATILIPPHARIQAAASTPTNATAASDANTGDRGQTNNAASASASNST

The term IC50 denotes the concentration at which inhibition is half-maximal. Turning to `Cc1ccc(C(=O)N2CCc3c(C#N)c4nc[nH]c(=O)c4n3CC2)cc1` [Compound No. 50, 8-[(4-methylphenyl)carbonyl]4-oxo-3-hydro-6H,7H,9H,10H-1,4-diazaperhydroepino[1′,7′-5,1]pyrrolo[3,2-d]pyrimidine-11-carbonitrile], the IC50 (IC50 class given in μM) lay within 1 to 10 µM. In the case of `Cc1ccc(NC(=O)N2CCc3c(C#N)c4nc[nH]c(=O)c4n3CC2)cc1` [Compound No. 161, (11-cyano-4-oxo(3-hydro-6H,7H,9H,10H-1,4-diazaperhydroepino[4′,5′-1,5]pyrrolo[3,2-d]pyrimidine-8-yl))-N-(4-methylphenyl)carboxamide], the IC50 (IC50 class given in μM) was in the range of 1 to 10 µM. `N#Cc1c2n(c3c(=S)[nH]cnc13)CCN(S(=O)(=O)c1ccccc1)CC2` [Compound No. 410, 8-(phenylsulfonyl)-4-thioxo-3-hydro-6H,7H,9H,10H-1,4-diazaperhydroepino[1′,7′-5,1]pyrrolo[3,2-d]pyrimidine-11-carbonitrile]: where the note is “IC50 class given in μM”, the IC50 lay in the range of 1 to 10 µM. On to `N#Cc1c2n(c3c(=S)[nH]cnc13)CCN(C(=O)Nc1cccc(C(=O)O)c1)CC2` [Compound No. 792, 3-[(11-cyano-4-thioxo-3-hydro-6H,7H,9H,10H-1,4-diazaperhydroepino[4′,5′-1,5]pyrrolo[3,2-d]pyrimidine-8-yl)carbonylamino]benzoic Acid], for which the IC50 (phospho-glycogen synthase peptide-2 substrate, [γ-33P]ATP, IC50 class printed in nM) was less than 0.05 µM.

Consider `N#Cc1c2n(c3c(=S)[nH]cnc13)CCN(Cc1ccccc1)c1ccccc1-2` [Compound No. 1799, 5-benzyl-9-thioxo-10-hydro-6H,7H-benzo[f]pyrimidino[5′,4′-2,3]pyrrolo[1,5-d]1,4-diazepine-13-carbonitrile], for which, where the note is “IC50 class given in μM”, the IC50 lay in the range of 1 to 10 µM.
